According to US9944589B2, “Cycloproplyamine derivatives useful as inhibitors of histone demethylases KDM1A” (Istituto Europeo de Oncologia S.r.L., priority 2012, dated 2018):
Counter-ions that a name gives are not always drawn.

Key:
[1] = test system: mouse model of leukemia resembling the human acute promyelocytic leukemia; assay: In vivo activity, mouse leukemia model, splenomegaly as read out of blast infiltration; conditions: orally, 30 mg/kg, 4 days, leukemic mice
Experimental: The in vivo activity was conducted on a mouse model as characterized by Minucci et al. (Minucci S. et al. Blood 2002, 100, 2989-2995) The model is characterized by the development of leukemia, resembling the human acute promyelocytic leukemia, which is associated to a blast infiltration of several organs as bone marrow, liver and particularly of the spleen. In the conducted experiment, splenomegaly was studied as read out of blast infiltration and development of leukemia.
For the in vivo analysis, one million of leukemic cells (obtained from 129SvEv mice, Minucci S. et al. Blood 2002, 100, 2989-2995, obtained from Taconic, One Hudson City Centre Hudson, N.Y. (USA)) were injected intravenously into non-irradiated syngenic recipients. Treatment started once blast cells are detected in the recipients' peripheral blood (9 days after injection). The compounds were intravenously or orally administered at doses of 10 and 30 mg/kg for 4 days. […] after blast injection the mice were sacrificed and the spleens recovered. The weights of the spleen of the mice of the vehicle groups as well as of the treated groups were registered and used as evidence of effect on blast infiltration. […]
Compound A-36 administered orally at 30 mg/kg determined a reduction of the spleen weight of around 50% compared to mice treated with the vehicle (40% PEG-400, 60% aqueous solution containing 5% glucose) alone.

[2] = test system: Acute promyelocytic leukemia NB4 cells; assay: Cell growth (CellTiter-Fluor cell viability assay); type: cell-based; conditions: Homo sapiens, NB-4, 48 h, range classes, read-out: IC50 [μM], cell growth inhibitory assay
Method in brief: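 Exponentially growing NB4 cells exposed to a range of inhibitor concentrations for 48 h. Viability then read as live-cell protease fluorescence (ex 360/em 535 nm) after ≥90 min reagent incubation at 37 °C; IC50 calculated from the data.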

Human recombinant MAO B = biological target: T1, Human recombinant MAO B (Homo sapiens, UniProt P27338); conditions: ratio of IC50 against MAO-B over IC50 for LSD1
T1 sequence (P27338 1-520): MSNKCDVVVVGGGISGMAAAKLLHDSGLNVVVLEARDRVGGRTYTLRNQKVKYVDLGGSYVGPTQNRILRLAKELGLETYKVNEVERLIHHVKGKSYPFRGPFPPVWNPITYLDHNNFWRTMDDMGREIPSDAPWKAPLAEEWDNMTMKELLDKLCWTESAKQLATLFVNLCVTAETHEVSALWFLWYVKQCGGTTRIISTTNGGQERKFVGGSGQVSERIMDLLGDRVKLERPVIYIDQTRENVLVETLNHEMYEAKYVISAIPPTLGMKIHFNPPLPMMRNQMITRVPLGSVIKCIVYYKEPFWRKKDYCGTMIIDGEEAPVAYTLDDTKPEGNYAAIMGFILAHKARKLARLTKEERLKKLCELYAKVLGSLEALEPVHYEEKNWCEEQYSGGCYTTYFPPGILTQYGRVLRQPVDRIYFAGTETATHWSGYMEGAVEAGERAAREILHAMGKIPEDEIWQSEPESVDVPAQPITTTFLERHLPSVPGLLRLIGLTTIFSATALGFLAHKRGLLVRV
Experimental: The MAO-Glo Assay from Promega (cat. V1402, Promega, Madison, Wis.) was used to measure the effect of inhibitors on MAO-A and MAO-B activity.
After 30 minutes of incubation the reaction was stopped with the Promega detection reagent. The experiments were carried out in duplicate. IC50 was calculated using GraphPad Prism version 4.0 (GraphPad Software, San Diego, Calif.).

[3] = biological target: T2, human recombinant KDM1A (LSD1)/CoRest (Homo sapiens, UniProt O60341); assay: Assay of enzyme inhibition of KDM1A (LSD1), Amplex UltraRed/peroxidase coupled; type: biochemical; conditions: 15 min preincubation, 4.5 μM mono-methylated H3-K4 peptide, range classes, read-out: IC50 [μM], KDM1A inhibition assay
T2 construct: made in house; host or cells: E. coli
Method in brief: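 KDM1A/CoRest complex with inhibitor (e.g. 0–100 μM) and Amplex UltraRed/peroxidase preincubated 15 min at RT. Substrate: mono-methylated H3K4 21-mer peptide in 50 mM Tris pH 8, 0.05 mg/ml BSA, aerobic. IC50 from duplicates run twice, background-corrected.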

Structure (SMILES)	reduction of the spleen weight compared to mice treated with the vehicle [1]	IC50 [2] [µM]	IC50 (MAO-B)/IC50 (LSD1) (Human recombinant MAO B)	IC50 [3] [µM]
CC[C@@]1(N)C[C@H]1c1ccc(NC(=O)c2ccc(-c3ccccc3)cc2)cc1 (relative stereo) [Example A-36, N-[4-[(trans)-2-amino-2-ethyl-cyclopropyl]phenyl]-4-phenyl-benzamide hydrochloride]	around 50%	≤ 10	16	
CN1CCN(c2ccc(C(=O)Nc3ccc([C@@H]4C[C@]4(N)CCc4ccccc4)cc3)cc2)CC1 (relative stereo) [Example A-116, N-[4-(trans-2-amino-2-phenethyl-cyclopropyl)phenyl]-4-(4-methylpiperazin-1-yl)benzamide dihydrochloride]		≤ 10	>100	< 0.1
